Test results published in the NIST ThermoML archive (doi:10.1021/je100967k).
Where “and” joins values, the source holds several entries; their conditions need not be identical. Identical values can stand only once. Numbers after ± are expanded uncertainties.

Key:
[1] = xn = mol fraction of the nth substance listed; details: 101 kPa, Liquid; for speed of sound: Pulse-echo method
[2] = refractive index (Na D-line) (dimensionless); xn = mol fraction of the nth substance listed; details: 101 kPa, Liquid, Standard Abbe refractometry
[3] = 101 kPa, Liquid; for speed of sound: Pulse-echo method
[4] = refractive index (Na D-line) (dimensionless); details: 101.33 kPa, Liquid, Standard Abbe refractometry

CCO [ethanol] + CN1CCCC1=O
x2 = 0
Details	mass density, [1] [kg/m3]	refractive index, [2]	speed of sound, [1] [m/s]	viscosity, [1] [mPa·s]
293.15 K	789.54 ± 0.73	1.3616 ± 0.0005	1162.3 ± 0.9	1.116 ± 0.018
303.15 K	780.94 ± 0.75	1.3574 ± 0.0005	1128.9 ± 0.9	0.9502 ± 0.016
313.15 K	772.2 ± 0.77	1.3532 ± 0.0005	1095.4 ± 0.9	0.7899 ± 0.013
323.15 K	763.29 ± 0.78	1.3493 ± 0.0005	1071.9 ± 0.9	0.6304 ± 0.011

CCO [ethanol]
Details	mass density, [3] [kg/m3]	refractive index, [4]	speed of sound, [3] [m/s]	viscosity, [3] [mPa·s]
293.15 K	789.54 ± 0.73	1.3616 ± 0.0005	1162.3 ± 0.9	1.116 ± 0.018
303.15 K	780.94 ± 0.75	1.3574 ± 0.0005	1128.9 ± 0.9	0.9502 ± 0.016
313.15 K	772.2 ± 0.77	1.3532 ± 0.0005	1095.4 ± 0.9	0.7899 ± 0.013
323.15 K	763.29 ± 0.78	1.3493 ± 0.0005	1071.9 ± 0.9	0.6304 ± 0.011

NCCO [2-aminoethan-1-ol]
Details	mass density, [3] [kg/m3]	refractive index, [4]	speed of sound, [3] [m/s]	viscosity, [3] [mPa·s]
293.15 K	1016.65 ± 0.52	1.4525 ± 0.0005	1735.9 ± 1.4	24.61 ± 0.35
303.15 K	1008.74 ± 0.51	1.4488 ± 0.0005	1703.7 ± 1.4	14.96 ± 0.24
313.15 K	1000.77 ± 0.49	1.4449 ± 0.0005	1671.2 ± 1.4	9.839 ± 0.15
323.15 K	992.75 ± 0.5	1.4417 ± 0.0005	1638.8 ± 1.3	6.902 ± 0.11

CN1CCCC1=O [N-methylpyrrolidone] + NCCO
x1 = 1
Details	mass density, [1] [kg/m3]	refractive index, [2]	speed of sound, [1] [m/s]	viscosity, [1] [mPa·s]
293.15 K	1032.87 ± 0.55	1.4691 ± 0.0006	1565.3 ± 1.4	1.858 ± 0.03
303.15 K	1023.95 ± 0.53	1.4647 ± 0.0006	1526.5 ± 1.3	1.553 ± 0.025
313.15 K	1015.03 ± 0.52	1.4603 ± 0.0006	1487.8 ± 1.3	1.324 ± 0.022
323.15 K	1006.1 ± 0.5	1.4559 ± 0.0006	1450.2 ± 1.3	1.146 ± 0.019

CN1CCCC1=O [N-methylpyrrolidone]
Details	mass density, [3] [kg/m3]	refractive index, [4]	speed of sound, [3] [m/s]	viscosity, [3] [mPa·s]
293.15 K	1032.87 ± 0.55	1.4706 ± 0.0006 and 1.4691 ± 0.0006	1565.3 ± 1.4	1.858 ± 0.03
303.15 K	1023.95 ± 0.53	1.4664 ± 0.0006 and 1.4647 ± 0.0006	1526.5 ± 1.3	1.553 ± 0.025
313.15 K	1015.03 ± 0.52	1.4621 ± 0.0006 and 1.4603 ± 0.0006	1487.8 ± 1.3	1.324 ± 0.022
323.15 K	1006.1 ± 0.5	1.4576 ± 0.0006 and 1.4559 ± 0.0006	1450.2 ± 1.3	1.146 ± 0.019
